Results published in ChEMBL document CHEMBL3045941, “-Methyl as a bioisostere for the oxygen link between the aromatic rings of aryloxyphenoxypropionate herbicides” (Bioorg Med Chem Lett, 1997).
Calls of active or inactive are those of the source. The rule behind the calls is not given here.

Key:
Oryza sativa [1] = assay: Phytotoxicity against Oryza sativa (rice) plant at two to four-leaf growth stage at 50 g/ha measured after 13 days under green house conditions; type: organism-based; conditions: in vivo, 312 h
Triticum aestivum [2] = assay: Phytotoxicity against Triticum aestivum (wheat) at two to four-leaf growth stage at 12.5 g/ha measured after 13 days under green house conditions; type: organism-based; conditions: in vivo, 312 h
[3] = target: Acetyl-CoA carboxylase (Hordeum vulgare) (UniProt Q3V4F7+Q3V4I7+Q947J4+Q947J5+Q40010+Q5S741+Q5S747); assay: Inhibition of acetyl-CoA carboxylase in Hordeum vulgare (barley) leaves; type: protein assay
Echinochloa crus-galli [4] = assay: Post-emergent herbicidal activity against Echinochloa crus-galli (barnyard grass) at <2 g/ha measured after 13 days under green house conditions; type: functional, organism-based
Setaria viridis [5] = assay: Post-emergent herbicidal activity against Setaria viridis (green foxtail) at 12.5 g/ha measured after 13 days under green house conditions; type: functional
Oryza sativa [6] = assay: Phytotoxicity against Oryza sativa (rice) plant at two to four-leaf growth stage at 12.5 g/ha measured after 13 days under green house conditions; type: organism-based; conditions: in vivo, 312 h
Zea mays [7] = assay: Phytotoxicity against Zea mays (maize) plant at two to four-leaf growth stage at 50 g/ha measured after 13 days under green house conditions; type: organism-based; conditions: in vivo, 312 h
Triticum aestivum [8] = assay: Phytotoxicity against Triticum aestivum (wheat) at two to four-leaf growth stage at 50 g/ha measured after 13 days under green house conditions; type: organism-based; conditions: in vivo, 312 h
Oryza sativa [9] = assay: Phytotoxicity against Oryza sativa (rice) plant at two to four-leaf growth stage at <2 g/ha measured after 13 days under green house conditions; type: organism-based; conditions: in vivo, 312 h
Echinochloa crus-galli [10] = assay: Post-emergent herbicidal activity against Echinochloa crus-galli (barnyard grass) at 12.5 g/ha measured after 13 days under green house conditions; type: functional
Zea mays [11] = assay: Phytotoxicity against Zea mays (maize) plant at two to four-leaf growth stage at 12.5 g/ha measured after 13 days under green house conditions; type: organism-based; conditions: in vivo, 312 h
Setaria viridis [12] = assay: Post-emergent herbicidal activity against Setaria viridis (green foxtail) at 50 g/ha measured after 13 days under green house conditions; type: functional
Sorghum halepense [13] = assay: Post-emergent herbicidal activity against Sorghum halepense (Johnson grass) at 12.5 g/ha measured after 13 days under green house conditions; type: functional
Sorghum halepense [14] = assay: Post-emergent herbicidal activity against Sorghum halepense (Johnson grass) at <2 g/ha measured after 13 days under green house conditions; type: functional, organism-based
Avena fatua [15] = assay: Post-emergent herbicidal activity against Avena fatua at <2 g/ha measured after 13 days under green house conditions; type: functional, organism-based
Sorghum halepense [16] = assay: Post-emergent herbicidal activity against Sorghum halepense (Johnson grass) at 50 g/ha measured after 13 days under green house conditions; type: functional
Triticum aestivum [17] = assay: Phytotoxicity against Triticum aestivum (wheat) at two to four-leaf growth stage at <2 g/ha measured after 13 days under green house conditions; type: organism-based; conditions: in vivo, 312 h
Echinochloa crus-galli [18] = assay: Post-emergent herbicidal activity against Echinochloa crus-galli (barnyard grass) at 50 g/ha measured after 13 days under green house conditions; type: functional
Zea mays [19] = assay: Phytotoxicity against Zea mays (maize) plant at two to four-leaf growth stage at <2 g/ha measured after 13 days under green house conditions; type: organism-based; conditions: in vivo, 312 h
Setaria viridis [20] = assay: Post-emergent herbicidal activity against Setaria viridis (green foxtail) at <2 g/ha measured after 13 days under green house conditions; type: functional, organism-based
Avena fatua [21] = assay: Post-emergent herbicidal activity against Avena fatua at 12.5 g/ha measured after 13 days under green house conditions; type: functional
Avena fatua [22] = assay: Post-emergent herbicidal activity against Avena fatua at 50 g/ha measured after 13 days under green house conditions; type: functional
Triticum aestivum [23] = assay: Phytotoxicity against Triticum aestivum (wheat) at two to four-leaf growth stage at 250 g/ha measured after 13 days under green house conditions; type: organism-based; conditions: in vivo, 312 h
Sorghum halepense [24] = assay: Post-emergent herbicidal activity against Sorghum halepense (Johnson grass) at 250 g/ha measured after 13 days under green house conditions; type: functional
Echinochloa crus-galli [25] = assay: Post-emergent herbicidal activity against Echinochloa crus-galli (barnyard grass) at 250 g/ha measured after 13 days under green house conditions; type: functional
Zea mays [26] = assay: Phytotoxicity against Zea mays (maize) plant at two to four-leaf growth stage at 250 g/ha measured after 13 days under green house conditions; type: organism-based; conditions: in vivo, 312 h
Avena fatua [27] = assay: Post-emergent herbicidal activity against Avena fatua at 250 g/ha measured after 13 days under green house conditions; type: functional
Setaria viridis [28] = assay: Post-emergent herbicidal activity against Setaria viridis (green foxtail) at 250 g/ha measured after 13 days under green house conditions; type: functional
Oryza sativa [29] = assay: Phytotoxicity against Oryza sativa (rice) plant at two to four-leaf growth stage at 250 g/ha measured after 13 days under green house conditions; type: organism-based; conditions: in vivo, 312 h
Avena fatua [30] = assay: Post-emergent herbicidal activity against Avena fatua at 100 g/ha measured after 13 days under green house conditions; type: functional
Oryza sativa [31] = assay: Phytotoxicity against Oryza sativa (rice) plant at two to four-leaf growth stage at 100 g/ha measured after 13 days under green house conditions; type: organism-based; conditions: in vivo, 312 h
Zea mays [32] = assay: Phytotoxicity against Zea mays (maize) plant at two to four-leaf growth stage at 100 g/ha measured after 13 days under green house conditions; type: organism-based; conditions: in vivo, 312 h
Echinochloa crus-galli [33] = assay: Post-emergent herbicidal activity against Echinochloa crus-galli (barnyard grass) at 100 g/ha measured after 13 days under green house conditions; type: functional
Triticum aestivum [34] = assay: Phytotoxicity against Triticum aestivum (wheat) at two to four-leaf growth stage at 100 g/ha measured after 13 days under green house conditions; type: organism-based; conditions: in vivo, 312 h
Sorghum halepense [35] = assay: Post-emergent herbicidal activity against Sorghum halepense (Johnson grass) at 100 g/ha measured after 13 days under green house conditions; type: functional
Setaria viridis [36] = assay: Post-emergent herbicidal activity against Setaria viridis (green foxtail) at 100 g/ha measured after 13 days under green house conditions; type: functional

| SMILES | Activity (Echinochloa crus-galli [4]) | Activity (Oryza sativa [9]) | Activity (Sorghum halepense [14]) | Activity (Avena fatua [15]) | Activity (Triticum aestivum [17]) | Activity (Zea mays [19]) | Activity (Setaria viridis [20]) | Activity (Triticum aestivum [23]) [%] | Activity (Sorghum halepense [24]) [%] | Activity (Echinochloa crus-galli [25]) [%] | Activity (Zea mays [26]) [%] | Activity (Avena fatua [27]) [%] | Activity (Setaria viridis [28]) [%] | Activity (Oryza sativa [29]) [%] | further results |
| --- | --- | --- | --- | --- | --- | --- | --- | --- | --- | --- | --- | --- | --- | --- | --- |
| CCOC(=O)C(C)Oc1ccc(N(C)c2ncc3cc(Cl)ccc3n2)cc1 (racemic) | inactive | Non-toxic | inactive | inactive | Non-toxic | Non-toxic | inactive |  |  |  |  |  |  |  | Activity (Oryza sativa [1]): 35%; Activity (Triticum aestivum [2]): 35%; Activity [3]: 1.5 µM; Activity (Setaria viridis [5]): 65%; Activity (Oryza sativa [6]): 0%; Activity (Zea mays [7]): 65%; Activity (Triticum aestivum [8]): 65%; Activity (Echinochloa crus-galli [10]): 98%; Activity (Zea mays [11]): 15%; Activity (Setaria viridis [12]): 98%; Activity (Sorghum halepense [13]): 65%; Activity (Sorghum halepense [16]): 98%; Activity (Echinochloa crus-galli [18]): 85%; Activity (Avena fatua [21]): 0%; Activity (Avena fatua [22]): 15% |
| CCOC(=O)C(C)Oc1ccc(Oc2ncc(Cl)cn2)cc1 (racemic) | inactive | Non-toxic | inactive | inactive | Non-toxic | Non-toxic | inactive | 70 | 85 | 85 | 85 | 85 | 85 | 70 |  |
| COC(=O)C(C)Oc1ccc(N(C)c2ncc(Cl)cn2)cc1 (racemic) | inactive | Non-toxic | inactive | inactive | Non-toxic | Non-toxic | inactive | 85 | 85 | 100 | 85 | 85 | 85 | 70 |  |
| CCOC(=O)C(C)Oc1ccc(N(C)c2nc3ccccc3o2)cc1 (racemic) | inactive | Non-toxic | inactive | inactive | Non-toxic | Non-toxic | inactive |  |  |  |  |  |  |  | Activity (Avena fatua [30]): 70%; Activity (Oryza sativa [31]): 30%; Activity (Zea mays [32]): 100%; Activity (Echinochloa crus-galli [33]): 100%; Activity (Triticum aestivum [34]): 85%; Activity (Sorghum halepense [35]): 100%; Activity (Setaria viridis [36]): 85% |
